Compound in the experiment “Crenolanib + Navitoclax”: CC1(COc2ccc3c(c2)ncn3-c2ccc3cccc(N4CCC(N)CC4)c3n2)COC1 [Crenolanib] + CC1(C)CCC(c2ccc(Cl)cc2)=C(CN2CCN(c3ccc(C(=O)NS(=O)(=O)c4ccc(N[C@H](CCN5CCOCC5)CSc5ccccc5)c(S(=O)(=O)C(F)(F)F)c4)cc3)CC2)C1 [Navitoclax] (partner 0.5 µM)
Description: relative viability (nuclei count vs DMSO), 5 days (fraction); higher = more cells survive. In outline:
(§1)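 Lung cancer cell lines in 1536-well plates got either a single drug or a fixed anchor-drug dose together with five library-drug doses (not always all listed) in √10 steps, by pin tool, on the day after seeding. Nuclei were counted after 5 days, and relative viability is the treated-to-vehicle ratio of nuclei counts. Values are medians of duplicate plates.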

Compound in the experiment “Tivantinib + Foretinib”: O=C1NC(=O)[C@@H](c2cn3c4c(cccc24)CCC3)[C@@H]1c1c[nH]c2ccccc12 [Tivantinib] + COc1cc2c(Oc3ccc(NC(=O)C4(C(=O)Nc5ccc(F)cc5)CC4)cc3F)ccnc2cc1OCCCN1CCOCC1 [Foretinib] (partner 0.25 µM)
Described as above. In outline:
as §1

With HCC-15, the relative viability was found to be 0.694 with Crenolanib + Navitoclax (first compound 0.01 µM); 0.673 with Crenolanib + Navitoclax (first compound 0.03162 µM); 0.677 in the experiment with Crenolanib + Navitoclax (first compound 0.1 µM); 0.784 with Crenolanib + Navitoclax (first compound 0.3162 µM); 0.729 with Crenolanib + Navitoclax (first compound 1 µM); 1.04 with Tivantinib + Foretinib (first compound 0.01 µM). The relative viability stood at 1.01 with Tivantinib + Foretinib (first compound 0.03162 µM), 0.991 with Tivantinib + Foretinib (first compound 0.1 µM) and 0.986 with Tivantinib + Foretinib (first compound 0.3162 µM).
Take NCI-H647: the relative viability in the experiment with Crenolanib + Navitoclax (first compound 0.01 µM) came out at 1.13; with Crenolanib + Navitoclax (first compound 0.03162 µM), 1.22; with Crenolanib + Navitoclax (first compound 0.1 µM) it was 0.967; with Crenolanib + Navitoclax (first compound 0.3162 µM) it was 1.11; with Crenolanib + Navitoclax (first compound 1 µM) it was 0.98; with Tivantinib + Foretinib (first compound 0.01 µM), 1.25. The figures for the relative viability with Tivantinib + Foretinib (first compound 0.03162 µM), with Tivantinib + Foretinib (first compound 0.1 µM) and with Tivantinib + Foretinib (first compound 0.3162 µM) were 1.18, 1.12 and 1.21, respectively.
On to NCI-H1650, for which the relative viability was 1.22 with Crenolanib + Navitoclax (first compound 0.01 µM); 1.13 with Crenolanib + Navitoclax (first compound 0.03162 µM); 1.14 with Crenolanib + Navitoclax (first compound 0.1 µM); 1.6 with Crenolanib + Navitoclax (first compound 0.3162 µM); 1.34 with Crenolanib + Navitoclax (first compound 1 µM); 1.08 with Tivantinib + Foretinib (first compound 0.01 µM). For the same cell line, the relative viability was determined as 1.11 with Tivantinib + Foretinib (first compound 0.03162 µM), 1.02 with Tivantinib + Foretinib (first compound 0.1 µM) and 0.972 with Tivantinib + Foretinib (first compound 0.3162 µM).
Turning to NCI-H2347, the relative viability with Crenolanib + Navitoclax (first compound 0.01 µM) was 0.835; with Crenolanib + Navitoclax (first compound 0.03162 µM), 0.815; with Crenolanib + Navitoclax (first compound 0.1 µM), 0.478; with Crenolanib + Navitoclax (first compound 0.3162 µM), 0.885; with Crenolanib + Navitoclax (first compound 1 µM), 0.865; with Tivantinib + Foretinib (first compound 0.01 µM), 0.94. In addition, the relative viability with Tivantinib + Foretinib (first compound 0.03162 µM) stood at 1.12; with Tivantinib + Foretinib (first compound 0.1 µM), 0.712; in the experiment with Tivantinib + Foretinib (first compound 0.3162 µM), 1.05.
For A549, the relative viability with Crenolanib + Navitoclax (first compound 0.01 µM) turned out to be 1.2; with Crenolanib + Navitoclax (first compound 0.03162 µM), 1.13; in the experiment with Crenolanib + Navitoclax (first compound 0.1 µM), 1.18; in the experiment with Crenolanib + Navitoclax (first compound 0.3162 µM) it was 1.53; with Crenolanib + Navitoclax (first compound 1 µM) it was 1.02; with Tivantinib + Foretinib (first compound 0.01 µM), 0.977. Further, the relative viability is 1.03 in the experiment with Tivantinib + Foretinib (first compound 0.03162 µM), 0.913 in the experiment with Tivantinib + Foretinib (first compound 0.1 µM) and 0.889 in the experiment with Tivantinib + Foretinib (first compound 0.3162 µM).
Turning to LOU-NH91, the relative viability in the experiment with Crenolanib + Navitoclax (first compound 0.01 µM) came out at 0.853; with Crenolanib + Navitoclax (first compound 0.03162 µM), 0.702; with Crenolanib + Navitoclax (first compound 0.1 µM), 0.645; with Crenolanib + Navitoclax (first compound 0.3162 µM), 0.641; with Crenolanib + Navitoclax (first compound 1 µM) it was 0.737; with Tivantinib + Foretinib (first compound 0.01 µM), 0.901. Besides, the figures for the relative viability with Tivantinib + Foretinib (first compound 0.03162 µM), in the experiment with Tivantinib + Foretinib (first compound 0.1 µM) and in the experiment with Tivantinib + Foretinib (first compound 0.3162 µM) were 0.925, 0.939 and 0.573, respectively.
Consider H3255, for which the relative viability with Crenolanib + Navitoclax (first compound 0.01 µM) was 0.607; in the experiment with Crenolanib + Navitoclax (first compound 0.03162 µM), 0.419; with Crenolanib + Navitoclax (first compound 0.1 µM), 0.421; with Crenolanib + Navitoclax (first compound 0.3162 µM) it was 0.501; with Crenolanib + Navitoclax (first compound 1 µM), 0.492; with Tivantinib + Foretinib (first compound 0.01 µM), 0.806. Also, the results for the relative viability with Tivantinib + Foretinib (first compound 0.03162 µM) and with Tivantinib + Foretinib (first compound 0.1 µM) were 0.933 and 0.802, respectively.
NCI-H1975: the relative viability was 1.18 in the experiment with Crenolanib + Navitoclax (first compound 0.01 µM); 1.02 with Crenolanib + Navitoclax (first compound 0.03162 µM); 0.954 with Crenolanib + Navitoclax (first compound 0.1 µM); 1.17 in the experiment with Crenolanib + Navitoclax (first compound 0.3162 µM); 1.24 with Crenolanib + Navitoclax (first compound 1 µM); 0.904 in the experiment with Tivantinib + Foretinib (first compound 0.01 µM). Further, the relative viability in the experiment with Tivantinib + Foretinib (first compound 0.03162 µM) was 0.974; in the experiment with Tivantinib + Foretinib (first compound 0.1 µM), 0.905; in the experiment with Tivantinib + Foretinib (first compound 0.3162 µM), 0.996.
As for NCI-H3122, the relative viability with Crenolanib + Navitoclax (first compound 0.01 µM) turned out to be 0.987; in the experiment with Crenolanib + Navitoclax (first compound 0.03162 µM), 1; with Crenolanib + Navitoclax (first compound 0.1 µM) it was 0.985; in the experiment with Crenolanib + Navitoclax (first compound 0.3162 µM) it was 1.04; with Crenolanib + Navitoclax (first compound 1 µM) it was 1; in the experiment with Tivantinib + Foretinib (first compound 0.01 µM), 0.947. Also, the relative viability with Tivantinib + Foretinib (first compound 0.03162 µM) came to 0.982; in the experiment with Tivantinib + Foretinib (first compound 0.1 µM), 0.909; with Tivantinib + Foretinib (first compound 0.3162 µM) it was 0.951.
For the cell line NCI-H441, the relative viability in the experiment with Crenolanib + Navitoclax (first compound 0.01 µM) is 0.487; with Crenolanib + Navitoclax (first compound 0.1 µM), 0.815; in the experiment with Crenolanib + Navitoclax (first compound 0.3162 µM), 0.639; with Crenolanib + Navitoclax (first compound 1 µM), 0.683; with Tivantinib + Foretinib (first compound 0.01 µM), 0.749; in the experiment with Tivantinib + Foretinib (first compound 0.03162 µM) it was 1.1. Besides, the relative viability in the experiment with Tivantinib + Foretinib (first compound 0.1 µM) came to 1.01; with Tivantinib + Foretinib (first compound 0.3162 µM) it was 0.876.
On to NCI-H2170, for which the relative viability came out at 0.612 with Crenolanib + Navitoclax (first compound 0.01 µM); 0.549 with Crenolanib + Navitoclax (first compound 0.03162 µM); 0.65 with Crenolanib + Navitoclax (first compound 0.1 µM); 0.665 with Crenolanib + Navitoclax (first compound 0.3162 µM); 0.579 with Crenolanib + Navitoclax (first compound 1 µM); 0.975 with Tivantinib + Foretinib (first compound 0.01 µM). The relative viability with Tivantinib + Foretinib (first compound 0.03162 µM) stood at 0.929; in the experiment with Tivantinib + Foretinib (first compound 0.1 µM) it was 1.02.
In the case of NCI-H1395, the relative viability with Crenolanib + Navitoclax (first compound 0.01 µM) came out at 1.13; in the experiment with Crenolanib + Navitoclax (first compound 0.03162 µM), 1.26; in the experiment with Crenolanib + Navitoclax (first compound 0.1 µM) it was 1.07; with Crenolanib + Navitoclax (first compound 0.3162 µM) it was 1.18; in the experiment with Crenolanib + Navitoclax (first compound 1 µM), 1.15; with Tivantinib + Foretinib (first compound 0.01 µM), 1.11. Besides, the relative viability was found to be 1.03 with Tivantinib + Foretinib (first compound 0.03162 µM), 0.966 with Tivantinib + Foretinib (first compound 0.1 µM) and 0.828 with Tivantinib + Foretinib (first compound 0.3162 µM).
Regarding LC-2-ad, the relative viability came out at 0.492 with Crenolanib + Navitoclax (first compound 0.01 µM); 0.48 in the experiment with Crenolanib + Navitoclax (first compound 0.03162 µM); 0.367 in the experiment with Crenolanib + Navitoclax (first compound 0.1 µM); 0.647 with Crenolanib + Navitoclax (first compound 0.3162 µM); 0.54 with Crenolanib + Navitoclax (first compound 1 µM); 0.849 with Tivantinib + Foretinib (first compound 0.01 µM). Further, the relative viability stood at 0.924 in the experiment with Tivantinib + Foretinib (first compound 0.03162 µM), 0.85 with Tivantinib + Foretinib (first compound 0.1 µM) and 0.597 with Tivantinib + Foretinib (first compound 0.3162 µM).
Take PC-14: the relative viability in the experiment with Crenolanib + Navitoclax (first compound 0.01 µM) was 1.08; in the experiment with Crenolanib + Navitoclax (first compound 0.03162 µM), 1.01; in the experiment with Crenolanib + Navitoclax (first compound 0.1 µM), 0.986; with Crenolanib + Navitoclax (first compound 0.3162 µM), 1.11; with Crenolanib + Navitoclax (first compound 1 µM) it was 0.988; with Tivantinib + Foretinib (first compound 0.01 µM), 0.93. In addition, the relative viability is 0.893 with Tivantinib + Foretinib (first compound 0.03162 µM), 0.984 with Tivantinib + Foretinib (first compound 0.1 µM) and 1.05 with Tivantinib + Foretinib (first compound 0.3162 µM).
Consider CAL-12T, for which the relative viability with Crenolanib + Navitoclax (first compound 0.01 µM) came to 1.48; in the experiment with Crenolanib + Navitoclax (first compound 0.03162 µM), 1.19; in the experiment with Crenolanib + Navitoclax (first compound 0.1 µM) it was 1.22; in the experiment with Crenolanib + Navitoclax (first compound 0.3162 µM) it was 1.48; in the experiment with Crenolanib + Navitoclax (first compound 1 µM), 1.26; in the experiment with Tivantinib + Foretinib (first compound 0.01 µM) it was 1.17. In addition, the relative viability with Tivantinib + Foretinib (first compound 0.03162 µM) is 0.953; with Tivantinib + Foretinib (first compound 0.1 µM), 1.1; in the experiment with Tivantinib + Foretinib (first compound 0.3162 µM), 0.782.
Consider EBC-1, for which the relative viability is 0.504 in the experiment with Crenolanib + Navitoclax (first compound 0.01 µM); 0.395 in the experiment with Crenolanib + Navitoclax (first compound 0.03162 µM); 0.467 in the experiment with Crenolanib + Navitoclax (first compound 0.1 µM); 0.566 with Crenolanib + Navitoclax (first compound 0.3162 µM); 0.571 with Crenolanib + Navitoclax (first compound 1 µM); 0.117 in the experiment with Tivantinib + Foretinib (first compound 0.01 µM). Besides, the values for the relative viability in the experiment with Tivantinib + Foretinib (first compound 0.03162 µM), in the experiment with Tivantinib + Foretinib (first compound 0.1 µM) and with Tivantinib + Foretinib (first compound 0.3162 µM) were 0.107, 0.0799 and 0.0958, respectively.

Source of the values: the supplement of paper PMC10307832.
